These results are taken from US4259345A, “2-(Imidazol-1-ylmethyl)pyrroles” (Pfizer Inc., priority 1979, dated 1981).

Assay [1] has as its target T1, Thromboxane A2 (TxA2) Synthetase (Homo sapiens, UniProt P24557).
T1 construct: Indomethacin pretreated human platelet microsomes; from tissue; host or cells: human platelets (microsomes)
T1 sequence (P24557 1-533): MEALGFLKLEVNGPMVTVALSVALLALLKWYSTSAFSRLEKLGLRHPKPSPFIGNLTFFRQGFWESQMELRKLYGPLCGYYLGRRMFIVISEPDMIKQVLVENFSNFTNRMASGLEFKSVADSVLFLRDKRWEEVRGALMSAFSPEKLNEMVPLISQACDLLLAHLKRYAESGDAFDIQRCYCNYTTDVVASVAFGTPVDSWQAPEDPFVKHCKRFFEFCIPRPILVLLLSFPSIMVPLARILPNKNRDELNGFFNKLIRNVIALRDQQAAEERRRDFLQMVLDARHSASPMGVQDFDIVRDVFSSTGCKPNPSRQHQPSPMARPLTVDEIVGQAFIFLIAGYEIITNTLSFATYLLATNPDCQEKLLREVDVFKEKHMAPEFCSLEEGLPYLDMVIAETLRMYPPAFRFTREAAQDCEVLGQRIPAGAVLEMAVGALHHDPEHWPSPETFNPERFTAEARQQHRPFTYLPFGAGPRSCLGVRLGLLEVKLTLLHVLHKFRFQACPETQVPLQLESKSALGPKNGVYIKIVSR
Put plainly: Thromboxane A2 (TxA2) synthetase inhibition in vitro (isometric tension of rabbit aorta spirals). It counts as biochemical. The following applies: Indomethacin pretreated human platelet microsomes; PGH2 substrate, 2 min, 0° C; 5 min pre-incubation; read-out: Molar concentration causing 50% inhibition of TxA2 Synthetase. The procedure: (§1) The effect of the compounds of the formula (I) on the thromboxane synthetase enzyme, and the prostacyclin synthetase and cyclo-oxygenase enzyme has been measured by the following in vitro enzyme assays:
3. Thromboxane A2 (TxA2) Synthetase
Indomethacin pretreated human platelet microsomes (Science 1976, 193, 163) are incubated (2 min.: 0° C.) with PGH2 (produced as in 1) and aliquots of the reaction mixture superfused over two rabbit aorta spirals which are separated by a delay coil (2 min.). The latter is required to allow the selective decay of the more unstable thromboxane A2 (Proc. Nat. Acad. Sci., 1975, 72, 2994) thereby enabling the separate measurement of increased isometric tension due to the TxA2 formed and the PGH2 remaining. The test compound is pre-incubated with the enzyme for 5 minutes, and its ability to inhibit the thromboxane synthetase enzyme is measured as its reduction of the TxA2 component of the isometric tension.
(§2) The results of these tests are shown in the following Table, which gives the molar concentration of each compound which caused a 50% change in the effect of the relevant enzyme on isometric tension, i.e. caused a 50% inhibition of the action of that enzyme.

The target of assay [2] is T2, Prostacyclin (PGI2) Synthetase (Sus scrofa, UniProt A0A5G2QT35).
T2 construct: Pig aorta microsomes; from tissue; host or cells: pig aorta (microsomes)
T2 sequence (A0A5G2QT35 1-497): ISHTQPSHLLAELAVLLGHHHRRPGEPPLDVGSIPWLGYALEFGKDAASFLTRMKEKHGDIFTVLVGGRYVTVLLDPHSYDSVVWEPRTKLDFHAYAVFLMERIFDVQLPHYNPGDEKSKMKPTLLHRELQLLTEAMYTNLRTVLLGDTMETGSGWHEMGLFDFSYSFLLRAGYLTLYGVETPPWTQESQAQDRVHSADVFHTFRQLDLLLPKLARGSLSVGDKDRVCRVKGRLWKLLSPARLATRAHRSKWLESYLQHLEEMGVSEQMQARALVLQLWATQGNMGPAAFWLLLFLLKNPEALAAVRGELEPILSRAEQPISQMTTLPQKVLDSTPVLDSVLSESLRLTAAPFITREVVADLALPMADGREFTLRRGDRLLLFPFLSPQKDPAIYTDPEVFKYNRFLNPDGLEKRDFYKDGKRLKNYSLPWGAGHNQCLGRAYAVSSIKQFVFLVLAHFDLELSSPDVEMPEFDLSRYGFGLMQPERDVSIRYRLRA
The following applies: pre-incubation with pig aorta microsome enzyme; literature; cited from earlier work.

Assay [3] deals with human blood platelet aggregation. The following applies: human blood platelets, variety of aggregating agents; literature; cited from earlier work.
Assay [4] concerns lethal effect of arachidonic acid injection. The following applies: intravenous arachidonic acid; literature; cited from earlier work.
In assay [5] the test system is aggregation of platelets in the rat aorta. The following applies: rats in vivo; literature; cited from earlier work.
Assay [6] has as its target T2, Prostacyclin (PGI2) Synthetase. Put plainly: Prostacyclin (PGI2) synthetase inhibition in vitro (isometric tension of rabbit aorta strip). Format: biochemical. The following applies: pig aorta microsomes; PGH2 substrate, 30 sec, 22° C; 5 min pre-incubation; read-out: Molar concentration causing 50% inhibition of PGI2 Synthetase. The procedure:
as §1
2. Prostacyclin (PGI2) Synthetase
Pig aorta microsomes (Nature, 1976, 263, 663) are incubated (30 sec.; 22° C.) with PGH2 produced as in 1) and aliquots bio-assayed as in 1. […] The test compound is then pre-incubated with the enzyme for 5 minutes, and its ability to prevent the decrease in tension is measured.
as §2

The next assay has as its target T3, Cyclo-oxygenase (Ovis aries, UniProt P05979).
T3 construct: Ram seminal vesicle microsomes; from tissue; host or cells: ram seminal vesicle (microsomes)
T3 sequence (P05979 25-600): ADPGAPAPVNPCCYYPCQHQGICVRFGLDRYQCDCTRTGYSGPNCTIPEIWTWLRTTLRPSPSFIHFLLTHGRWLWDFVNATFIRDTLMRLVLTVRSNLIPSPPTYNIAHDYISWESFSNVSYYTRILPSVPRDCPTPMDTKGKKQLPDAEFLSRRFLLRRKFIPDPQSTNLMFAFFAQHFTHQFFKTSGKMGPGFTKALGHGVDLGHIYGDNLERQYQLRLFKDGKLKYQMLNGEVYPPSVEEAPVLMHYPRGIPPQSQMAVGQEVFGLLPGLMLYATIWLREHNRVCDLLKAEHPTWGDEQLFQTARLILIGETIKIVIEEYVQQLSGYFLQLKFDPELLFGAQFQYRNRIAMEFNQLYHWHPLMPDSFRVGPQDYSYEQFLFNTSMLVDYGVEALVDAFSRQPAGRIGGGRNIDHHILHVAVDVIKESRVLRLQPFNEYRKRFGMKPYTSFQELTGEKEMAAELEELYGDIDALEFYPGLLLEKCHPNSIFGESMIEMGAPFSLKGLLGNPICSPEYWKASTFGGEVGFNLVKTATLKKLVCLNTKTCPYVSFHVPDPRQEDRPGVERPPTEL
Put plainly: Cyclo-oxygenase inhibition in vitro (isometric tension of rabbit aorta strip). Format: biochemical. The following applies: ram seminal vesicle microsomes; arachidonic acid 100 μM, 1 min, 22°; 5 min pre-incubation; read-out: Molar concentration causing 50% inhibition of Cyclo-oxygenase. As for the experimental part:
as §1
Ram seminal vesicle microsomes (Biochemistry, 1971, 10, 2372) are incubated with arachidonic acid (100 μM: 1 min.: 22°) to produce PGH2 and aliquots of the reaction mixture injected into a stream of Krebs-bicarbonate at 37° C. (containing a mixture of antagonists (Nature, 1978, 218, 1135) and indomethacin (Brit. J. Pharmacol., 1972, 45, 451)) which is superfusing a spirally-cut rabbit aorta strip (Nature, 1969, 223, 29). The ability of a compound to inhibit the enzyme is measured by comparing the increases in isometric tension produced by PGH2 in the absence of the test compound, and following pre-incubation of the enzyme with the test compound for 5 minutes.
as §2

Another assay has as its system cyclo-oxygenase enzyme. The following applies: background statement; cited from earlier work.

SMILES strings stand for the structures. pIC50: −log10 of the molar value.

`c1ccc(Cn2cccc2Cn2ccnc2)cc1`: the pIC50 in assay [1] is 5.77. In the case of `CCCCCC(/C=C/C=C\C/C=C\C/C=C\CCCC(=O)O)OO` (centres unmarked) [15-hydroperoxy-arachidonic acid], the “prevention of the PGI2-induced decrease in tension (PGI2 synthetase inhibition)” value in assay [2] is reported as “prevented completely”.

In the case of `O=C1C(CC[S+]([O-])c2ccccc2)C(=O)N(c2ccccc2)N1c1ccccc1` (centres unmarked) [sulphinpyrazone], the “inhibitory activity in vitro against aggregating agents” value in assay [3] was “show inhibitory activity in vitro”. In assay [4], the “protection from the lethal effect of arachidonic acid injection” value is reported as “protect the rabbit from the lethal effect of the injection”. Moreover, the “prevention of platelet aggregation in extra corporeal loop of the abdominal aorta” value in assay [5] is “prevent the aggregation of platelets”. Take `C=CCn1cccc1Cn1ccnc1` [CH2 CHCH2]: the pIC50 in assay [1] is 6.82. As for `CCOC(=O)c1ccc(Cn2cccc2Cn2ccnc2)cc1`, the values for the pIC50 in assay [1] and in assay [6] were 8.62 and 4.66, respectively. For the compound `c1ccc(-n2cccc2Cn2ccnc2)cc1`, the pIC50 in assay [1] was 8.72; in assay [6] it was 5.19. As for `O=C(O)c1ccc(Cn2cccc2Cn2ccnc2)cc1`, the results for the pIC50 (in assay [1]; in assay [6]; at Cyclo-oxygenase) were 8.47, 4.00 and under 4.00, respectively.

For the compound `CC(=O)Oc1ccccc1C(=O)O` [aspirin], the “inhibitory activity in vitro against aggregating agents” value in assay [3] is reported as “show inhibitory activity in vitro”. Besides, in assay [4], the “protection from the lethal effect of arachidonic acid injection” value is “protect the rabbit from the lethal effect of the injection”. In addition, the “inhibition of the cyclo-oxygenase enzyme” value in the assay with cyclo-oxygenase enzyme is “inhibit the cyclo-oxygenase enzyme”.

For `O=C(O)CCn1cccc1Cn1ccnc1` [CH2 CH2 CO2 H, 1-(2-Carboxyethyl)-2-(imidazol-1-ylmethyl)pyrrole], the pIC50 in assay [1] was 6.74.

As to `O=C(c1ccccc1)n1cccc1Cn1ccnc1`, the pIC50 in assay [1] was 8.31; in assay [6], 4.46. Consider `c1cc(Cn2ccnc2)n(C2CCCCC2)c1`, for which, in assay [1], the pIC50 was 6.21.
